From publication PMC9883482, “TPX2 enhances the transcription factor activation of PXR and enhances the resistance of hepatocellular carcinoma cells to antitumor drugs” (Cell Death & Disease, 2023) come the findings set out here.

As usually defined, the IC50 is the concentration at which inhibition is half-maximal. The low end stands for higher potency, the high end for lower potency.

The subject of this experiment is LS180 cells. Nature of the experiment: MTT cell survival examination. It is filed as cell-based. To be noted: Homo sapiens. The procedure: The antitumor activity of antitumor drugs injuring HCC cells was examined by using MTT assay. After culturing the HCC cells, transfection experiments were performed, and the cells were then seeded in 96-well cell culture plates (about 8000 cells per well). […] After the cells were treated with the drug for about 48 h, a dose of […] tetrazolium (MTT) reagent was added, and cells with the MTT reagent were incubated for 5 to 6 h. After incubation with the MTT was complete, all liquid in the 96-well cell culture plate was discarded, and about 100 μl of DMSO was added to each well to dissolve the cell samples. During the process of lysing the cell samples, the cell culture plate was shaken for 15 minutes to completely lyse the cells. After the lysis step was complete, the cell culture plate was centrifuged at 12,000 rpm at 4 °C, and the supernatant was collected for evaluation.
All statistical analyses in the presence work were performed using the GraphPad 8.0 (GraphPad Software Corporation, Armonk, NY, USA). […] For the survival analysis data, the survival curves were analyzed by the log-rank (Mantel–Cox) test to detect the P-value of the survival curve, the median survival time, and the 95% confidence interval (CI). For the co-relationship analysis, the data were analyzed by linear regression to determine the overall trend of a group of data points. […] If the slope was positive, the horizontal coordinate was positively related to the vertical coordinate, and if the slope was negative, the horizontal coordinate was negatively related to the vertical coordinate. For the multi-grouped data, the ordinary one-way analysis of variance (ANOVA) and multiple comparison methods were used. An ANOVA was used to examine whether any difference between groups could be detected. The multiple comparisons (t-test) was used to detect differences between pairs of data.

Regarding `CNC(=O)c1cc(Oc2ccc(NC(=O)Nc3ccc(Cl)c(C(F)(F)F)c3)cc2)ccn1` [sorafenib], the concentration for half-maximal inhibition (IC50) (LS180, LS180, TPX2 knockdown) stood at 250 nM; the IC50 (LS180, LS180, TPX2 overexpression) is 4300 nM; the IC50 (LS180, LS180, control group) was found to be 910 nM.
